Reference: patent US20140272095A1, “GLUTAMIC ACID DERIVATIVES” (Givaudan S.A., priority 2011, published 2014)

Key:
Assay type in all cases: in vivo
[1] = Flavourist tasting of a 0.5% NaCl / 0.03% MSG solution, umami intensity versus reference solution A (Example 2); details: 10 ppm compound in 0.5% NaCl and 0.03% MSG; average rating of 4 flavourists versus solution A; scale -3 (much lower than base) to 3 (much higher), 0 = same as base
Experimental: (§1) Two solutions were prepared: • A a solution of 0.5% NaCl and 0.03% MSG • B a solution of 0.5% NaCl and 0.03% MSG and 10 ppm Example 1 compound
(§2) The samples were tasted by a small group of flavourists (2 male, 2 female, aged between 30 and 60). The intensity of the umami and salt taste of solution B was compared with that of the reference (solution A) and rated according to the following intensity scale:
(§3) The results (average of ratings given by the flavourists) were: […]

[2] = Flavourist tasting of a 0.5% NaCl / 0.03% MSG solution, salt intensity versus reference solution A (Example 2); details: 10 ppm compound in 0.5% NaCl and 0.03% MSG; average rating of 4 flavourists versus solution A; scale -3 (much lower than base) to 3 (much higher), 0 = same as base
Experimental: as §1, §2, §3

[3] = Flavourist tasting, enhancement effect on NaCl (solution D versus A, Example 3); details: 10 ppm in 0.5% NaCl; marked between 0 and 10, greater value = greater effect; salt reference solution A = 0.0
Experimental: (§4) Six solutions were prepared: • A a solution of 0.5% NaCl • B a solution of 0.5% NaCl and 0.03% MSG • C a solution of 0.5% NaCl and 0.015% ribonucleotides • D a solution of 0.5% NaCl and 10 ppm Example 1 compound • E a solution of 0.5% NaCl and 0.03% MSG and 10 ppm Example 1 compound • F a solution of 0.5% NaCl and 0.015% ribonucleotides and 10 ppm Example 1 compound
(§5) The samples were tasted by a group of 5-10 flavourists aged between 30 and 60. The taste of solution D is compared with that of A to determine the enhancement effect of Example 1 compound on NaCl. Similarly, solution E is compared with solution B and solution F with solution C to determine the enhancement effect of Example 1 compound on MSG and ribonucleotides respectively. The effect is marked between 0 and 10, the greater the value the greater the effect.

[4] = Flavourist tasting, enhancement effect on MSG (solution E versus B, Example 3); details: 10 ppm in 0.5% NaCl and 0.03% MSG; marked between 0 and 10; MSG reference solution B = 5.0
Experimental: as §4, §5

[5] = Flavourist tasting, enhancement effect on ribonucleotides (solution F versus C, Example 3); details: 10 ppm in 0.5% NaCl and 0.015% ribonucleotides; marked between 0 and 10; ribo reference solution C = 5.0
Experimental: as §4, §5

[6] = Bread comparison by a panel of professional tasters (Example 5); details: bread B: 20 g NaCl and 0.025 g compound in the flour mixture; bread A: 20 g NaCl only
Experimental: A bread flour mixture was prepared by mixing 1250 g of wheat flour, 250 g of white wheat flour and 60 g of yeast. Two salt mixtures were added to separate flour mixtures: • A 20 g of NaCl • B 20 g of NaCl and 0.025 g (+−)-1-aminocyclopentane-trans-1,3-dicarboxylic acid
Doughs were prepared by mixing the ingredients and adding 900 g of water. The doughs were allowed to rise at room temperature for 2 hours and baked at 220° C. for 45 minutes.
A panel of professional tasters compared the breads. The bread B was preferred over reference bread A.

[7] = Bouillon tasting by flavourists versus reference bouillon (Example 4); details: 250 ppm in bouillon (32 g mix in 1 L boiling water); 4 flavourists
Experimental: A bouillon mix was prepared from 155.0 g of sodium chloride, 157.0 g of dextrose monohydrate (ex Tapioca), 0.2 g of celery oleoresin, 0.3 g of oleoresin turmeric Vegex, 0.2 g of oleoresin coriander seed, 444.8 g maltodextrin 5-8 DE, 40.0 g vegetable oil soya bean refined, 30.0 g yeast standard light, 4.0 g of onion powder, 4.0 g of garlic powder, 0.5 g of white pepper and 164.0 g of potato starch.
32 g of the well-mixed ingredients was added to 1 L of boiling water and stirred until completely dissolved.
A small group of flavourists (2 male, 2 female) compared the taste of the reference bouillon with that of a batch of the same bouillon containing 250 ppm of 2-(amino(carboxy)methyl)-cyclopropanecarboxylic acid. The flavourists agreed that the test bouillon was more umami and saltier than the reference bouillon.

SMILES: N[C@]1(C(=O)O)CC[C@H](C(=O)O)C1 (racemic) [(±)-1-Aminocyclopentane-cis-1,3-dicarboxylic acid]
- Intensity Taste Umami [1]: 0.00
- Intensity Taste Salt (NaCl) [2]: 1.00
- NaCl Taste [3]: 1.3
- MSG taste [4]: 6.7
- Ribo taste [5]: 5.2

SMILES: N[C@@]1(C(=O)O)CC[C@H](C(=O)O)C1 (racemic) [(±)-1-Aminocyclopentane-trans-1,3-dicarboxylic acid]
- Intensity Taste Umami [1]: 0.00
- Intensity Taste Salt (NaCl) [2]: 1.00
- NaCl Taste [3]: 2.0
- MSG taste [4]: 5.3
- Ribo taste [5]: 6.3
- Preference of bread B over reference bread A [6]: preferred

SMILES: NC(C(=O)O)C1CC1C(=O)O (centres unmarked) [2-(amino(carboxy)methyl)cyclopropanecarboxylic acid]
- Intensity Taste Umami [1]: 1.00
- Intensity Taste Salt (NaCl) [2]: 0.00
- NaCl Taste [3]: 1.2
- MSG taste [4]: 6.3
- Ribo taste [5]: 5.7
- Salt taste of test bouillon versus reference bouillon [7]: saltier
- Umami taste of test bouillon versus reference bouillon [7]: more umami

SMILES: CCOC(=O)C(N)C1CC1C(=O)OC.Cl (centres unmarked) [methyl 2-(1-amino-2-ethoxy-2-oxoethyl)cyclopropanecarboxylate, HCl]
- Intensity Taste Umami [1]: 1.00
- Intensity Taste Salt (NaCl) [2]: 0.00
- NaCl Taste [3]: 0.0
- MSG taste [4]: 5.5
- Ribo taste [5]: 5.4
